Experimental data published in publication PMC9961652 (International Journal of Molecular Sciences, 2023).
Read-outs that look alike come from different tables or passages of the source.

What was measured:
RhoA-LARG interaction = target: T1, RhoA-LARG interaction (Homo sapiens, UniProt P61586); test: In vitro complex-formation assay of RhoA with LARG DH-PH domain; format: binding; details: R-G04 25 µM or 50 µM, S-G04 5 µM or 10 µM; 4 °C, 1 h
T1 construct: 100 ng of purified full-length RhoA
Procedure: (A) A complex-formation assay tested the inhibitory effects of 20 µM UC-177618 and UC-177619 on RhoA interaction with the LARG DH-PH domain. […] After incubating the compound-RhoA-LARG mixture at 4 °C for 1 h, the beads associated with RhoA were detected with anti-RhoA Western blotting. (B,C) Top view of the predicted structural contacts of UC-177618 and UC-177619 in the binding pocket around the Trp58 residue of RhoA.
(A) A complex-formation assay tested the inhibitory effects of R-G04 and S-G04 on RhoA interaction with the LARG DH-PH domain. MBP-(His)6-tagged LARG (100 ng) was immobilized on Amylose beads. Binding buffer containing full-length RhoA (100 ng) was pre-incubated with different concentrations of R-G04 (25 µM or 50 µM), and S-G04 (5 µM or 10 µM) was added to the beads. After incubating the compound-RhoA-LARG mixture at 4 °C for 1 h, the beads associated with RhoA were detected with anti-RhoA Western blotting. (B) Top view of the predicted structural contacts of R-G04 and S-G04 in the binding pocket around the Trp58 residue of RhoA.
In total, 100 ng of purified MBP (Maltose-binding protein)-(His)6-tagged LARG DH-PH was immobilized on 20 µL of suspended amylose beads (No. E8021S; New England Biolabs Inc., Ipswich, MA, USA) by incubating them in an orbital shaker at 4 °C for 30 min in binding buffer (20 mM Tris·HCl (pH 7.6), 100 mM NaCl, 0.01% Triton X-100, 5mM EDTA, and 5 mM MgCl2). The compounds were added to the binding buffer containing 100 ng of purified full-length RhoA and pre-incubated at 4 °C for 30 min under constant agitation. The Amylose beads bound to LARG were washed thrice with binding buffer to get rid of unbound LARG, and the pre-incubated compound-RhoA mixture was added to the beads. This LARG-compound-RhoA mixture was incubated in the orbital shaker at 4 °C for 1 h. The beads were washed three times, and the amount of RhoA protein co-precipitated with the MBP-fusion-bound beads was detected with anti-RhoA Western blotting.

washed human platelets [1] = test: Collagen-induced platelet aggregation, light transmission aggregometry (Born method); format: cell-based; details: for IC50: collagen 1 µg/mL, dose-response curves, read-out: IC50 (95% CI) of platelet aggregation; for IC50 / activity at 20 µM: washed human platelets; for activity at 20 µM: compound 20 µM, means ± SDs of three experiments, 100% = agonist alone
Procedure: Light transmission aggregometry, i.e., the Born method, was used to determine in vitro antiplatelet aggregation activity using collagen as the agonist for platelet aggregation. Collagen was selected as the agonist, since it is the most thrombogenic component of the subendothelial layer. Collagen also serves as a substrate for platelet adhesion and as an inducer of platelet activation.
All experiments using human blood from healthy volunteers were performed according to the protocols approved by the Institutional Review Board at Cincinnati Children’s Hospital Medical Center, Cincinnati, Ohio. Each volunteer was required to sign an informed consent form approved by the IRB. Procedures for drawing human blood, isolating platelet-rich plasma (PRP), and preparing washed platelet suspensions were the same as those previously reported. […] PRP was obtained by means of the centrifugation of blood at 1400 rpm for 15 min at room temperature. PRP was centrifuged at 4000 rpm for 10 min at room temperature, and the platelet pellet was resuspended in HEPES Tyrode’s solution (pH 7.4) without calcium. Platelets were counted using Hemavet 950FS (Drew Scientific, Oxford, CT, USA), and the count was adjusted to 2.5 × 10^8/mL for aggregation studies.
The in vitro antiplatelet activity of the compounds was assayed on washed human platelets using light transmission aggregometry. Platelet aggregation was performed using a 4-channel Lumi-aggregometer (Chronolog, PA, USA) at 37 °C and stirring speed of 900 rpm. A volume of 250 µL of washed human platelets (2.5 × 10^8/mL) was pre-warmed to 37 °C along with the compounds or DMSO (0.1%) for 2 min before the addition of agonists such as collagen, AA, U46619 (a stable synthetic analog of thromboxane A2), ADP, and thrombin. For ATP secretion, platelets were pre-incubated with a luciferin/luciferase kit (Chrono-lume®) for 30 s at 37 °C before the addition of the agonist. The reactions were allowed to proceed for at least 4 min, and the results of platelet aggregation and ATP secretion were determined using Aggrolink software. Platelet aggregation was expressed as the maximum change in the light transmission, where the 100% value corresponded to treatment with the agonist alone. Compounds were evaluated in triplicate at nine compound concentrations ranging from 50 µM to 1 µM.

washed human platelets [2] = test: ATP secretion (Chrono-lume) after thrombin stimulation; format: cell-based; details: 10 µM S-G04 or 20 µM R-G04; thrombin 0.1 U/mL
Procedure: (A–D) Washed human platelets were pre-incubated with 10 µM S-G04 or 20 µM R-G04 for 2 min before being stimulated with Arachidonic Acid (AA), U46619, ADP, or Thrombin. The % platelet aggregation was measured 5 min after agonist stimulation. (E) Washed human platelets were pre-incubated with 10 µM S-G04 or 20 µM R-G04 for 2 min and with Chrono-lume® for 30 s at 37 °C before being stimulated with 0.1 U/mL Thrombin. […] TxB2 formation was determined using a TxB2 ELISA kit. The differences among DMSO, R-G04, and S-G04 were analyzed using t-test, and the results are shown as means ± SDs of three independent experiments. (* p < 0.05, ** p < 0.01, *** p < 0.001, and **** p < 0.0001).
The in vitro antiplatelet activity of the compounds was assayed on washed human platelets using light transmission aggregometry. Platelet aggregation was performed using a 4-channel Lumi-aggregometer (Chronolog, PA, USA) at 37 °C and stirring speed of 900 rpm. […] The reactions were allowed to proceed for at least 4 min, and the results of platelet aggregation and ATP secretion were determined using Aggrolink software. Platelet aggregation was expressed as the maximum change in the light transmission, where the 100% value corresponded to treatment with the agonist alone. Compounds were evaluated in triplicate at nine compound concentrations ranging from 50 µM to 1 µM. […]

[3] = Platelet, read-out: % Platelet Aggregation, Collagen (1 µg/mL)
[4] = Platelet, read-out: % Platelet Aggregation, Collagen (5 µg/mL)

T1 sequence (P61586 whole entry, the tested form may be a part): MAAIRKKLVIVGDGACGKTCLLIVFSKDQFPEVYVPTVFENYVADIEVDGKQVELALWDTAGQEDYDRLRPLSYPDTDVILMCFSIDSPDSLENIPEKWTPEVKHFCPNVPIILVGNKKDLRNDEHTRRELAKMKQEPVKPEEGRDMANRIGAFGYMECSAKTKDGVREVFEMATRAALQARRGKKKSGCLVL

Row | IC50 (washed human platelets [1]; Homo sapiens, Platelet) | IC50 (washed human platelets [1]) | SMILES | LARG binding to RhoA (RhoA-LARG interaction) | activity at 20 µM (washed human platelets [1]; [3]) | activity at 20 µM (washed human platelets [1]; [4]) | ATP secretion (washed human platelets [2]) | potency of S-G04 relative to R-G04 (washed human platelets [1]; from IC50, collagen 1 µg/mL)
1 | 22.6 µM | – | N[C@H](Cc1c[nH]c2ccccc12)C(=O)N/N=C/c1ccc2nccnc2c1 [R-G04] | dose-dependently suppressing LARG binding to RhoA | 70.3 ± 18.9% | 71.4 ± 15% | failed to have the same inhibitory effect | –
2 | 7.8 µM | 7.96 µM | N[C@@H](Cc1c[nH]c2ccccc12)C(=O)N/N=C/c1ccc2nccnc2c1 [S-G04] | dose-dependently suppressing LARG binding to RhoA | 9.33 ± 4.93% | 20 ± 5% | inhibited ATP secretion | three times more potent than R-G04
